The values that follow come from patent US20150306237A1, “HYALURONIC ACID-ANTIOXIDANT CONJUGATES AND THEIR USES” (priority 2012, published 2015).

SMILES strings stand for the structures. Marks after values point to notes of the source that are not given here.

The nature of series [1]: Antioxidant activity measurement (DPPH). The settings on record: DPPH % after 60 minutes; for DPPH for moiety alone [%] ± SD, n = 3: free moiety, lower = more antioxidant. Format: biochemical. Background: The DPPH test is a chemical assay of radical scavenging.
Series [2] in a line: Viscosity and pH of formulations after steam sterilization. Format: physicochemical. The settings on record: formulation after steam sterilization. Here is the method:
The gel is steam sterilized 10 minutes at 121° C. with an entire cycle of 35 minutes. For the viscosity, gels are measured with the rheological program presented before.
The target characteristics are a viscosity after heat sterilization of around 1000 [mPas], neutrality and isotonicity to plasma (around 280 [mOsmol]) in common with state of the art commercial formulations such as Ostenil©.

The subject of the next series is New-Zealand rabbits. Nature of the series: Intra-articular biocompatibility test in rabbit. The series is classed as in vivo. The procedure: Twelve male New-Zealand rabbits are kept in individual cages 2 weeks after reception before injection. The day of injection, they are anesthetized with Ketamin©/Domitor©, their posterior articulations shaved and disinfected with Vetedine© soap and solution. 200 ul of the selected formulations are injected into the articulations. The rabbit is then revived with Atipam©. The formulations are randomized for rabbits as well as for articulations and injected blindly.
Twice a week, a clinical examination is performed comprising the following points. For the general state; vigilance (at distance from the cage: normal, diminished, sleepy, enhanced), movements (at distance from the cage: normal, diminished), limb ledge (at distance from the cage: yes, no), limp (at distance from the cage: yes, no), hair state: (smooth and shiny, dull, bristling, dirty zones, hairless zones), wound: (yes, no), abnormal secretion: (yes, no), mucosal color: (pink, blade, congested, cyanosed). For the injected joints; swelling (from 0 to 3, 3 being strongest swelling), flow at the injection site (0-3), heat (0-3), palpation pain (from 0 to 3), mobilization pain (0-3), redness (0-3), hematoma (0-3). An echography is also performed under anesthesia comprising the following […] (external lateral, internal lateral and proximal) according to a protocol published in the literature and provides information about the presence of liquid, osteophytes and any severe cartilage erosion. After one month observation, the rabbits are sacrificed with intra-muscular injection of Ketamin©/Domitor© and intra-cardiac Dolethal©. The articulations are dissected and photographed before and after china ink embodiment to assess the state of the rotula, condyl, tibia and trochlea cartilage by a visual analogue scale (VAS) expressed in percentage of the structure degraded and by osteophytis scoring (OS) giving the presence or absence of osteophytes (0: absent, 1: present).
The femoral and tibial parts are fixed in 10% formalin solution and decalcified with Kristenson solution from Chimie-Plus Laboratoire (Denice, France) during several weeks. Samples are cut in two parasagittal sections for medial femoral and tibial condyles (left and right) and then paraffin embedded and sectioned into 4 μm thick slices. Sections were stained with Safranin O-fast green for cartilage. Synovial membranes were fixed in 10% formalin solution, cut in two or three parallel sections, paraffin embedded and sectioned into 4 μm thick slices. Each paraffin block was sectioned in three slides [one stained with hematoxylin, eosin and saffron (HES), and two stained with hematoxylin and eosin (HE)]. Histological features were evaluated in a blinded fashion except for control rabbits. Histological lesions were evaluated and scored according the OARSI histopathology initiative; -recommendations for histological assessments of osteoarthritis in the rabbit (Osteoarthritis and cartilage 18 (2010) S53-S65). Microscopic scoring of cartilage alterations, two sections per condyle were evaluated allowing a semi-quantitative grading. Several parameters were evaluated: Safranin O-fast green staining, structure, chondrocytes density, cluster formation. For microscopic scoring of synovial alterations, three sections per synovial membrane were evaluated, allowing semi-quantitative grading. Several parameters were evaluated: synoviocytes proliferation, synoviocytes hypertrophy, granulocytic infiltration, lymphoplasmacytic infiltration, lymphoplasmacytic aggregates follicles, villous hyperplasia, proliferation of fibroblasts/fibrocytes, proliferation of blood vessels, cartilage/bone detritus presence and hemosiderosis.
The above mentioned formulations were tested in term of intra-articular biocompatibility in the rabbit model; Conjugated HA linked to 4AR (n=4), unconjugated HA mixed with 4AR (n=4), 4AR (n=4) and as controls; physiological serum (n=2), untreated (n=2) and Ostenil© (n=4).

For series [3] the following is noted: reference [22]; cited from earlier work.
A short description of series [4]: Viscosity stability in an oxidative environment (Weissberger's oxidative system, CuCl2 + ascorbic acid). The settings on record: gel 1 %.
Series [5] can be described thus: Water solubility of the moieties. The series is classed as physicochemical. The settings on record: free moiety.
Where [6] appears, read: HA conjugate (native HA), for 4AR first value, 14 % grafting.

For the molecule `Nc1ccc(O)cc1O` [4AR, 4-aminoresorcinol], the “DPPH [%] ± SD, n = 3” value in series [1] (4AR conjugate with 57 % grafting (second value of the cell)) was found to be 37%. In series [1] (setting [6]), the “DPPH [%] ± SD, n = 3” value was found to be 71%. In series [1], the “DPPH for moiety alone [%] ± SD, n = 3” value came to 28%. The pH in series [2] is 7.25. Further, in the series with New-Zealand rabbits (0 absent, 1 present, one month), the “Tibia OS” value came to 0% and the “Trochlea OS” value turned out to be 0%. Moreover, the “Rotula OS” value with New-Zealand rabbits (0 absent, 1 small osteophyte present, one month) was 0%. In addition, the “Condyl OS, ext” value in the series on New-Zealand rabbits (external, 0 absent, 1 present, one month) was 0/0%. For the same molecule, in the series with New-Zealand rabbits (external, one month), the “Condyl VAS score, ext” value is recorded as 0/0% and the “Tibia VAS score, ext” value is given as 0***/0*** %. For the same molecule, the “Condyl OS, int” value in the series on New-Zealand rabbits (internal, 0 absent, 1 present, one month) was 0/0%. For the same molecule, in the series on New-Zealand rabbits (internal, one month), the “Condyl VAS score, int” value is recorded as 0/0% and the “Tibia VAS score, int” value was 0***/0*** %. For the same molecule, in the series with New-Zealand rabbits (one month), the “Meniscus lesion (int/ext)” value is 0, the “Synvovial membrane Fibrosis” value was determined as 0, the “Synvovial membrane Inflamation” value was determined as 0 and the “Trochlea VAS score” value is reported as 0-10* %. In the series with New-Zealand rabbits (percentage of structure degraded, one month after 200 ul intra-articular), the “Rotula VAS score” value was found to be 0%. In the series on New-Zealand rabbits (single injection, one month evaluation), the “intra-articular biocompatibility (in words)” value is listed as “no sign of non-biocompatibility”. The “cytotoxicity (in words)” value in series [3] is on record as “potent cytotoxic agent”. Also, the gain of viscosity in series [4] (during the 36 minutes of measurement, Weissberger oxidative system, n=1) was found to be 40%.

Consider `Nc1ccc(C(=O)O)c(O)c1` [4ASA, 4-aminosalicylic acid], for which, in series [1] (setting [6]), the “DPPH [%] ± SD, n = 3” value stood at 96%. For the same molecule, the “DPPH for moiety alone [%] ± SD, n = 3” value in series [1] is given as 27%. Besides, the “water solubility (in words)” value in series [5] was “low water solubility”.

On to `Nc1ccc(O)c(C(=O)O)c1` [5ASA, 5-aminosalicylic acid], for which the “DPPH [%] ± SD, n = 3” value in series [1] (setting [6]) was found to be 67%. Besides, the “DPPH for moiety alone [%] ± SD, n = 3” value in series [1] was found to be 34%.

Regarding `Cc1cc(=O)oc2cc(N)ccc12` [AMC], the “DPPH [%] ± SD, n = 3” value in series [1] (setting [6]) is 61%. Also, the “DPPH for moiety alone [%] ± SD, n = 3” value in series [1] is on record as 87%. In addition, the “water solubility (in words)” value in series [5] is “solubility is low”.

In the case of `Nc1ccccc1` [Aniline, aniline], the “DPPH [%] ± SD, n = 3” value in series [1] (setting [6]) was determined as 95%. In addition, the “DPPH for moiety alone [%] ± SD, n = 3” value in series [1] came out at 36%. Further, the “water solubility (in words)” value in series [5] is “high water solubility”.

Regarding `CCOC(=O)[C@@H](N)CS` [EECyst, ethylester cysteine], the “DPPH [%] ± SD, n = 3” value in series [1] (setting [6]) is 41%. For the same molecule, the “DPPH for moiety alone [%] ± SD, n = 3” value in series [1] is 6%.

Consider `NCCc1ccc(O)cc1` [Tyr, tyramin], for which, in series [1] (setting [6]), the “DPPH [%] ± SD, n = 3” value was 92%. Further, the “DPPH for moiety alone [%] ± SD, n = 3” value in series [1] is listed as 85%. The “viscosity behaviour / degradation in oxidative environment (in words)” value in series [4] (CuCl2 + ascorbic acid) is reported as “more degraded than HA itself”.
